# Experimental data taken from patent US20090311237A1, “Combination therapy using a soluble hyaluronidase and a bisphosphonate” (priority 2008, published 2009).
# Read-outs that look alike come from different tables or passages of the source.
# Assay: Pharmacokinetics of ZA in pig serum after IV or SC infusion with or without rHuPH20 (LC-MS-MS, non-compartmental analysis)
# Format: in vivo
# Protocol: A pharmacokinetic study of zoledronic acid (ZA) co-administered with rHuPH20 in female Yorkshire swines was conducted. The primary objective of the study was to determine the bioavailability of zoledronic acid dosed via subcutaneous (SC) co-administration with human recombinant hyaluronidase PH20 (rHuPH20) and to compare the overall exposure to an equivalent IV dose.
# Animals in Study Group 1 were dosed with 0.15 mg/kg ZA given via a 20-minute IV infusion. Animals in Study Groups 2 and 3 were dosed subcutaneously (SC) with 0.15 mg/kg ZA without and with rHuPH20, respectively, in different SC delivery volumes.
# Following ZA dose administration, serial blood samples were collected via vascular access ports (VAPs) for serum preparation and determination of ZA concentrations. Blood collection times were at 1, 3, 5, 10, 15, 20, 30, 45, and 60 minutes, and at 1.5, 2, 3, 4, 6, 8, 10, 24, 48, and 72 hours post dose. Urine samples were also collected to compare excretion characteristics between IV and SC routes of administration. Collection times for urine were at 15 minutes before dosing (−15 min.), continuously from dose initiation to 2 hours post dose, and at 4, 6, 8, and 24 hours post dose thereafter.
# Serum concentration of ZA was determined using a qualified LC-MS-MS assay after derivatization with diazomethane (Zhu, L S et al. (2006) Rapid Commun. Mass Spectrom. 20: 3421-3426; “Qualification Data of An LC-MS/MS Method for the Determination of Zoledronate in Porcine Serum”, MDS Pharma Services Study No. AA43671-01, Report Date 14 Sep. 2007). The assay range was from 2.0 to 400 ng/mL with a lower limit of quantitation (LLOQ) at 2.0 ng/mL. Urine concentration of ZA was determined by a similar well qualified LC-MS-MS method (“Qualification Data of An LC-MS/MS Method for the Determination of Zoledronate in Porcine Urine”, MDS Pharma Services Study No. AA43671-02, Report Date 14 Sep. 2007) with an assay LLOQ at 10 ng/mL.
# Pharmacokinetic (PK) analyses of ZA serum concentration versus time data were conducted using WinNonlin v5.1 (Pharsight, Mountain View, Calif.). Non-compartmental analysis was used for derivation of primary and secondary pharmacokinetic (PK) parameters. AUC, Cmax, and Tmax were compared between dose routes, between co-administration with rHuPH20, and with dose of rHuPH20.
# [1] = female, Yorkshire, pig, serum, subcutaneous, […], pig 66, Study Group 3, SC, ZA […], rHuPH20 10000 U/mL, 100 mL over 16 min, read-out: Zoledronic Acid Serum Concentration
# [2] = female, Yorkshire, pig, serum, subcutaneous, […], pig 68, Study Group 3, SC, ZA […], rHuPH20 10000 U/mL, 10 mL over 1.6 min, read-out: Zoledronic Acid Serum Concentration
# [3] = female, Yorkshire, pig, serum, subcutaneous, pig 56, Study Group 3, SC, ZA […], rHuPH20 10000 U/mL, 25 mL over 4 min, read-out: Zoledronic Acid Serum Concentration
# [4] = female, Yorkshire, pig, serum, subcutaneous, pig 58, Study Group 3, SC, ZA […], rHuPH20 10000 U/mL, 50 mL over 8 min, read-out: Zoledronic Acid Serum Concentration
# [5] = female, Yorkshire, pig, serum, subcutaneous, pig 68, Study Group 3, SC, ZA […], rHuPH20 10000 U/mL, 10 mL over 1.6 min, read-out: Zoledronic Acid Serum Concentration
compound,measurement,setting,value
"O=P(O)(O)C(O)(Cn1ccnc1)P(=O)(O)O [ZA, 1-hydroxy-2-(1H-imidazol-1-yl)ethylidene-1,1-bisphosphonic acid]",concentration at 4 h,"female, Yorkshire, pig, serum, subcutaneous, […], pig 64, Study Group 3, SC, ZA […], rHuPH20 10000 U/mL, 100 mL over 16 min, read-out: Zoledronic Acid Serum Concentration",19 ng/mL
same,concentration at 6 h,"female, Yorkshire, pig, serum, subcutaneous, […], pig 64, Study Group 3, SC, ZA […], rHuPH20 10000 U/mL, 100 mL over 16 min, time 6 h, read-out: Zoledronic Acid Serum Concentration",5.75 ng/mL
same,concentration at 0.05 h,[1],12 ng/mL
same,concentration at 0.333 h,[1],103 ng/mL
same,concentration at 0.5 h,[1],78.2 ng/mL
same,concentration at 1 h,[1],53.3 ng/mL
same,concentration at 2 h,[1],23.2 ng/mL
same,concentration at 3 h,[1],11.4 ng/mL
same,concentration at 4 h,[1],6.39 ng/mL
same,concentration at 0.05 h,[2],342 ng/mL
same,concentration at 0.333 h,[2],201 ng/mL
same,concentration at 0.5 h,[2],175 ng/mL
same,concentration at 0.05 h,[3],101 ng/mL
same,concentration at 0.333 h,[3],235 ng/mL
same,concentration at 0.5 h,[3],194 ng/mL
same,concentration at 1 h,[3],128 ng/mL
same,concentration at 2 h,[3],59.7 ng/mL
same,concentration at 3 h,[3],31.2 ng/mL
same,concentration at 4 h,[3],17.6 ng/mL
same,concentration at 5 h,"female, Yorkshire, pig, serum, subcutaneous, pig 56, Study Group 3, SC, ZA […], rHuPH20 10000 U/mL, 25 mL over 4 min, time 5 h, read-out: Zoledronic Acid Serum Concentration",19.6 ng/mL
same,concentration at 6 h,"female, Yorkshire, pig, serum, subcutaneous, pig 56, Study Group 3, SC, ZA […], rHuPH20 10000 U/mL, 25 mL over 4 min, time 6 h, read-out: Zoledronic Acid Serum Concentration",7.21 ng/mL
same,concentration at 8 h,"female, Yorkshire, pig, serum, subcutaneous, pig 56, Study Group 3, SC, ZA […], rHuPH20 10000 U/mL, 25 mL over 4 min, time 8 h, read-out: Zoledronic Acid Serum Concentration",2.28 ng/mL
same,concentration at 0.05 h,[4],73.8 ng/mL
same,concentration at 0.333 h,[4],270 ng/mL
same,concentration at 0.5 h,[4],177 ng/mL
same,concentration at 1 h,[4],107 ng/mL
same,concentration at 1 h,[5],90.6 ng/mL
same,concentration at 2 h,[5],43.2 ng/mL
same,concentration at 3 h,[5],17 ng/mL
same,concentration at 4 h,[5],7.09 ng/mL
same,concentration at 6 h,"female, Yorkshire, pig, serum, subcutaneous, pig 68, Study Group 3, SC, ZA […], rHuPH20 10000 U/mL, 10 mL over 1.6 min, time 6 h, read-out: Zoledronic Acid Serum Concentration",2.68 ng/mL
same,concentration at […],"female, Yorkshire, pig, serum, subcutaneous, pig 68, Study Group 3, SC, ZA […], rHuPH20 10000 U/mL, 10 mL over 1.6 min, time […], read-out: Zoledronic Acid Serum Concentration",50.5 ng/mL
same,Zoledronic Acid Serum Concentration,"pig 56, Study Group 3, SC, ZA […], rHuPH20 10000 U/mL, 25 mL over 4 min, time 10 h",BLQ^a (below assay limit of quantification (2.0 ng/mL))
same,Zoledronic Acid Serum Concentration,"pig 56, Study Group 3, SC, ZA […], rHuPH20 10000 U/mL, 25 mL over 4 min, time 24 h",BLQ (below assay limit of quantification (2.0 ng/mL))
same,Zoledronic Acid Serum Concentration,"pig 56, Study Group 3, SC, ZA […], rHuPH20 10000 U/mL, 25 mL over 4 min, time 48 h",BLQ (below assay limit of quantification (2.0 ng/mL))
same,Zoledronic Acid Serum Concentration,"pig 56, Study Group 3, SC, ZA […], rHuPH20 10000 U/mL, 25 mL over 4 min, time 72 h",BLQ (below assay limit of quantification (2.0 ng/mL))
same,Zoledronic Acid Serum Concentration,"pig 56, Study Group 3, SC, ZA […], rHuPH20 10000 U/mL, 25 mL over 4 min, time […]",BLQ (below assay limit of quantification (2.0 ng/mL))
same,Zoledronic Acid Serum Concentration,"pig 58, Study Group 3, SC, ZA […], rHuPH20 10000 U/mL, 50 mL over 8 min, time 8 h",BLQ (below assay limit of quantification (2.0 ng/mL))
same,Zoledronic Acid Serum Concentration,"pig 58, Study Group 3, SC, ZA […], rHuPH20 10000 U/mL, 50 mL over 8 min, time 10 h",BLQ (below assay limit of quantification (2.0 ng/mL))
same,Zoledronic Acid Serum Concentration,"pig 58, Study Group 3, SC, ZA […], rHuPH20 10000 U/mL, 50 mL over 8 min, time 24 h",BLQ (below assay limit of quantification (2.0 ng/mL))
same,Zoledronic Acid Serum Concentration,"pig 58, Study Group 3, SC, ZA […], rHuPH20 10000 U/mL, 50 mL over 8 min, time 48 h",BLQ (below assay limit of quantification (2.0 ng/mL))
same,Zoledronic Acid Serum Concentration,"pig 58, Study Group 3, SC, ZA […], rHuPH20 10000 U/mL, 50 mL over 8 min, time 72 h",BLQ (below assay limit of quantification (2.0 ng/mL))
same,Zoledronic Acid Serum Concentration,"pig 58, Study Group 3, SC, ZA […], rHuPH20 10000 U/mL, 50 mL over 8 min, time […]",BLQ (below assay limit of quantification (2.0 ng/mL))
same,Zoledronic Acid Serum Concentration,"pig 64, Study Group 3, SC, ZA […], rHuPH20 10000 U/mL, 100 mL over 16 min, time 8 h",BLQ (below assay limit of quantification (2.0 ng/mL))
same,Zoledronic Acid Serum Concentration,"pig 64, Study Group 3, SC, ZA […], rHuPH20 10000 U/mL, 100 mL over 16 min, time 10 h",BLQ (below assay limit of quantification (2.0 ng/mL))
same,Zoledronic Acid Serum Concentration,"pig 64, Study Group 3, SC, ZA […], rHuPH20 10000 U/mL, 100 mL over 16 min, time 24 h",BLQ (below assay limit of quantification (2.0 ng/mL))
same,Zoledronic Acid Serum Concentration,"pig 64, Study Group 3, SC, ZA […], rHuPH20 10000 U/mL, 100 mL over 16 min, time 48 h",BLQ (below assay limit of quantification (2.0 ng/mL))
same,Zoledronic Acid Serum Concentration,"pig 64, Study Group 3, SC, ZA […], rHuPH20 10000 U/mL, 100 mL over 16 min, time 72 h",BLQ (below assay limit of quantification (2.0 ng/mL))
same,Zoledronic Acid Serum Concentration,"pig 64, Study Group 3, SC, ZA […], rHuPH20 10000 U/mL, 100 mL over 16 min, time […]",BLQ (below assay limit of quantification (2.0 ng/mL))
same,Zoledronic Acid Serum Concentration,"pig 66, Study Group 3, SC, ZA […], rHuPH20 10000 U/mL, 100 mL over 16 min, time 6 h",BLQ (below assay limit of quantification (2.0 ng/mL))
same,Zoledronic Acid Serum Concentration,"pig 66, Study Group 3, SC, ZA […], rHuPH20 10000 U/mL, 100 mL over 16 min, time 8 h",BLQ (below assay limit of quantification (2.0 ng/mL))
same,Zoledronic Acid Serum Concentration,"pig 66, Study Group 3, SC, ZA […], rHuPH20 10000 U/mL, 100 mL over 16 min, time 10 h",BLQ (below assay limit of quantification (2.0 ng/mL))
same,Zoledronic Acid Serum Concentration,"pig 66, Study Group 3, SC, ZA […], rHuPH20 10000 U/mL, 100 mL over 16 min, time 24 h",BLQ (below assay limit of quantification (2.0 ng/mL))
same,Zoledronic Acid Serum Concentration,"pig 66, Study Group 3, SC, ZA […], rHuPH20 10000 U/mL, 100 mL over 16 min, time 48 h",BLQ (below assay limit of quantification (2.0 ng/mL))
same,Zoledronic Acid Serum Concentration,"pig 66, Study Group 3, SC, ZA […], rHuPH20 10000 U/mL, 100 mL over 16 min, time 72 h",BLQ (below assay limit of quantification (2.0 ng/mL))
same,Zoledronic Acid Serum Concentration,"pig 66, Study Group 3, SC, ZA […], rHuPH20 10000 U/mL, 100 mL over 16 min, time […]",BLQ (below assay limit of quantification (2.0 ng/mL))
same,Zoledronic Acid Serum Concentration,"pig 68, Study Group 3, SC, ZA […], rHuPH20 10000 U/mL, 10 mL over 1.6 min, time 8 h",BLQ (below assay limit of quantification (2.0 ng/mL))
same,Zoledronic Acid Serum Concentration,"pig 68, Study Group 3, SC, ZA […], rHuPH20 10000 U/mL, 10 mL over 1.6 min, time 10 h",BLQ (below assay limit of quantification (2.0 ng/mL))
same,Zoledronic Acid Serum Concentration,"pig 68, Study Group 3, SC, ZA […], rHuPH20 10000 U/mL, 10 mL over 1.6 min, time 24 h",BLQ (below assay limit of quantification (2.0 ng/mL))
same,Zoledronic Acid Serum Concentration,"pig 68, Study Group 3, SC, ZA […], rHuPH20 10000 U/mL, 10 mL over 1.6 min, time 48 h",BLQ (below assay limit of quantification (2.0 ng/mL))
same,Zoledronic Acid Serum Concentration,"pig 68, Study Group 3, SC, ZA […], rHuPH20 10000 U/mL, 10 mL over 1.6 min, time 72 h",BLQ (below assay limit of quantification (2.0 ng/mL))
same,Zoledronic Acid Serum Concentration,"pig 68, Study Group 3, SC, ZA […], rHuPH20 10000 U/mL, 10 mL over 1.6 min, time […]",BLQ (below assay limit of quantification (2.0 ng/mL))
same,T½ λz,"pig, ZA […] 20-min IV infusion, individual pigs 57, 61, 67",46.8 min
